Patent USRE36831E, “Iron-pyridone complexes for anemia” (priority 1983, dated 2000)
Like-named read-outs stand apart in the source and are kept apart here.

What was measured:
[1] = n-octanol/tris buffer, 100 µM, pH 7.4
Procedure: (§1) The partition coefficient Kpart, being the ratio (concentration of compound in n-octanol)/(concentration of compound in aqueous phase) on partition between n-octanol and aqueous tris hydrochloride (20 mM, pH 7.4; tris represents 2-amino-2-hydroxymethylpropane 1,3-diol), is measured at 20° C. for the 3:1 iron(III) complexes of each of the compounds listed in Table 1 and also for the iron-free compound (at 10^-4 M) by spectrophotometry. The solutions of the complexes are either produced by dissolving the pre-formed complex in the aqueous tris hydrochloride or are prepared in situ in the buffer by the admixture of a 3:1 molar ratio of the pyridone and ferric chloride, the pH thereafter being readjusted to 7.4 if necessary (the same product will be obtained in the buffer solution irrespective of whether the pyridone used is in a salt form or not). Acid washed glassware is used throughout and, following mixing of 5 ml of the 10^-4 M aqueous solution with 5 ml of n-octanol for 1 minute, the aqueous n-octanol mixture is centrifuged at 1,000 g for 30 seconds. The two resulting phases are separated for a concentration determination by spectrophotometry on each. For the free hydroxypyridones, the range 220-340 nm is used for concentration determinations whilst for the iron complexes the range 340-640 nm is used.

physchem = conditions: n-octanol/tris buffer, pH 7.4
Procedure: as §1

[2] = Partition coefficient between n-octanol and aqueous tris hydrochloride (20 mM, pH 7.4) at 20° C.; conditions: for Partition coefficient KOUT, free compound: 10^-4 M, n-octanol/tris hydrochloride 20 mM pH 7.4, 20° C.; for logD at 100 µM: n-octanol/tris buffer, pH 7.4; for Kpart values (in words): n-octanol partition
Procedure: as §1

inverted rat jejunal sac = assay: In vitro permeation of rat jejunal sac by iron complexes (iron uptake into serosal space); conditions: relative to ferric chloride as 1; Krebs Ringer buffer, 37° C., up to 1 hour
Excerpt: Rats (male Sprague Dawley, 60 g) were killed and the jejunum removed, everted and cut into three segments (4 cm length). […] The contents of the sac were counted for ^59 Fe and measured spectrophotometrically.

human erythrocytes = conditions: pH 7.4
Procedure: The accumulation of iron by human erythrocytes which are associated with iron complexes of various of the compounds referred to in Example 1 was studied by incubating for 1 hour at 37° C. a 5% suspension of erythrocytes in a medium consisting of the ^59 Fe labelled iron complex (10^-3 M) in aqueous sodium chloride (130 mM) buffered to pH 7.4 by tris hydrochloride (2 ml) (the iron complex was prepared in situ by an analogous procedure to that described in Example 1). Following this period of incubation, an aliquot of the erythrocyte/medium mixture was placed above a layer of silcone oil and the erythrocytes separated by centrifugation through the oil. The ^59 Fe levels associated with the erythrocytes and the incubation medium were then counted.

haemoglobin = assay: Ability of complexes to bind to haemoglobin (elution profile of 59Fe label on PD-10 column); format: binding; conditions: 59Fe-labelled 3:1 neutral complex, 1 mM
Procedure: The ability of the complexes of 1-acetyl-3-hydroxypyrid-2-one and 1-ethyl-3-hydroxy-6-hydroxymethylpyrid-4-one to bind to haemoglobin is investigated by studying the elution profile of a ^59 Fe label when a mixture of haemoglobin and the ^59 Fe-labelled 3:1 (pyridone:iron) neutral complex (at 1 mM concentration) is applied to a PD-10 column (Sephadex […] gel permeation column - Pharmacia).

apotransferrin = assay: Ability of iron complexes to donate iron to apotransferrin; format: biochemical; conditions: apotransferrin 10^-4 M, complex 10^-4 M, tris 50 mM pH 7.4, 37° C., 10 minutes
Procedure: Apotransferrin (10^-4 M) and the iron complex of 1-ethyl-3-hydroxy-6-hydroxymethylpyrid-4-one (10^-4 M; prepared as described in Example 1) were incubated together in tris hydrochloride (50 mM, buffered to pH 7.4) at 37° C. for 10 minutes when a 1 ml aliquot was removed from the medium and added to a PD10 column. 0.5 ml fractions were collected directly into scintillation vials for counting. […] A similar value was obtained with the complex of 3-hydroxy-1-(2'-hydroxyethyl)-2-methylpyrid-4-one but with the complex of 1-acetyl-3-hydroxypyrid-2-one over 80% of the iron was removed within 10 minutes.

Molecule: 3-hydroxy-5-hydroxymethyl-1-methylpyrid-4-one
- Partition coefficient KOUT, free compound [1]: 0.03

Molecule: Cc1c(O)c(=O)ccn1CCN [1-(2'-aminoethyl)-3-hydroxy-2-methylpyrid-4-one]
- logD at 100 µM (physchem): < -2.7

Molecule: Cc1c(O)c(=O)ccn1CCC(=O)O [1-(2'-carboxyethyl)-3-hydroxy-2-methylpyrid-4-one]
- logD at 100 µM (physchem): -0.347

Molecule: CC(=O)OCCCCCn1ccc(=O)c(O)c1C [1-(5'-acetoxypentyl)-3-hydroxy-2-methylpyrid-4-one]
- logD at 100 µM (physchem): -0.347

Molecule: CCCCNC(=O)Cn1cccc(O)c1=O [1-(N-butylcarbamoylmethyl)-3-hydroxypyrid-2-one]
- Partition coefficient KOUT, free compound [2]: 1.89

Molecule: CCNC(=O)Cn1cccc(O)c1=O [1-(N-ethylcarbamoylmethyl)-3-hydroxypyrid-2-one]
- Partition coefficient KOUT, free compound [2]: 0.12

Molecule: CC(=O)n1cccc(O)c1=O [1-acetyl-3-hydroxypyrid-2-one]
- logD at 100 µM (physchem): -0.26

Molecule: Cc1c(O)c(=O)ccn1CC(=O)O [1-carboxymethyl-3-hydroxy-2-methylpyrid-4-one]
- logD at 100 µM (physchem): < -2.7

Molecule: CCOC(=O)Cn1cccc(O)c1=O [1-ethoxycarbonylmethyl-3-hydroxypyrid-2-one]
- logD at 100 µM (physchem): -0.301

Molecule: CCn1cc(O)c(=O)cc1CO [1-ethyl-3-hydroxy-6-hydroxymethylpyrid-4-one]
- logD at 100 µM (physchem): -1.22

Molecule: Cc1c(O)c(=O)ccn1CCO [3-hydroxy-1-(2'-hydroxyethyl)-2-methylpyrid-4-one]
- logD at 100 µM [2]: < -2.7

Molecule: Cc1c(O)c(=O)ccn1CCCCO [3-hydroxy-1-(4'-hydroxybutyl)-2-methylpyrid-4-one]
- logD at 100 µM [2]: -0.854

Molecule: Cc1c(O)c(=O)ccn1CCCCCO [3-hydroxy-1-(5'-hydroxypentyl)-2-methylpyrid-4-one]
- logD at 100 µM (physchem): -0.553

Molecule: CNC(=O)Cn1cccc(O)c1=O [3-hydroxy-1-(N-methylcarbamoylmethyl)pyrid-2-one]
- Partition coefficient KOUT, free compound [2]: 0.06

Molecule: CCCNC(=O)Cn1cccc(O)c1=O [3-hydroxy-1-(N-propylcarbamoylmethyl)-pyrid-2-one]
- Partition coefficient KOUT, free compound [2]: 0.35

Molecule: CC(C)NC(=O)Cn1cccc(O)c1=O [3-hydroxy-1-[N-(2'-methylethyl)-carbamoylmethyl]-pyrid-2-one]
- Partition coefficient KOUT, free compound [2]: 0.34

Molecule: COC(=O)Cn1cccc(O)c1=O [3-hydroxy-1-methoxycarbonylmethylpyrid-2-one]
- logD at 100 µM (physchem): -0.699

Molecule: [Cl][Fe]([Cl])[Cl] [FeCl3, ferric chloride]
- Relative Iron Uptake (inverted rat jejunal sac): 1

Molecule: O=C([O-])[C@H](O)[C@@H](O)[C@H](O)[C@H](O)CO.O=C([O-])[C@H](O)[C@@H](O)[C@H](O)[C@H](O)CO.[Fe+2] [Fe^II gluconate]
- Relative Iron Uptake (inverted rat jejunal sac): 1.6

Molecule: Cc1c([O-])c(=O)ccn1CCN.Cc1c([O-])c(=O)ccn1CCN.Cc1c([O-])c(=O)ccn1CCN.[Fe+3] [Fe^III complex of 1-(2'-aminoethyl)-3-hydroxy-2-methylpyrid-4-one]
- Kpart values (in words) [2]: low Kpart values
- Amount of complex entering erythrocytes (human erythrocytes): < 5 n.mole

Molecule: Cc1c([O-])c(=O)ccn1CCC(=O)O.Cc1c([O-])c(=O)ccn1CCC(=O)O.Cc1c([O-])c(=O)ccn1CCC(=O)O.[Fe+3] [Fe^III complex of 1-(2'-carboxyethyl)-3-hydroxy-2-methylpyrid-4-one]
- Amount of complex entering erythrocytes (human erythrocytes): 19 n.mole

Molecule: CCCCNC(=O)Cn1cccc([O-])c1=O.CCCCNC(=O)Cn1cccc([O-])c1=O.CCCCNC(=O)Cn1cccc([O-])c1=O.[Fe+3] [Fe^III complex of 1-(N-butylcarbamoylmethyl)-3-hydroxypyrid-2-one]
- Amount of complex entering erythrocytes (human erythrocytes): 105 n.mole

Molecule: CC(=O)n1cccc([O-])c1=O.CC(=O)n1cccc([O-])c1=O.CC(=O)n1cccc([O-])c1=O.[Fe+3] [Fe^III complex of 1-acetyl-3-hydroxypyrid-2-one]
- haemoglobin binding ability (haemoglobin): no detectable haemoglobin binding ability
- iron removed from the iron complex (apotransferrin): over 80%
- Amount of complex entering erythrocytes (human erythrocytes): 240 n.mole

Molecule: O=C(O)Cn1cccc([O-])c1=O.O=C(O)Cn1cccc([O-])c1=O.O=C(O)Cn1cccc([O-])c1=O.[Fe+3] [Fe^III complex of 1-carboxymethyl-3-hydroxypyrid-2-one]
- Amount of complex entering erythrocytes (human erythrocytes): < 5 n.mole

Molecule: CCOC(=O)Cn1cccc([O-])c1=O.CCOC(=O)Cn1cccc([O-])c1=O.CCOC(=O)Cn1cccc([O-])c1=O.[Fe+3] [Fe^III complex of 1-ethoxycarbonylmethyl-3-hydroxypyrid-2-one]
- Amount of complex entering erythrocytes (human erythrocytes): 10 n.mole

Molecule: CCn1cc([O-])c(=O)cc1CO.CCn1cc([O-])c(=O)cc1CO.CCn1cc([O-])c(=O)cc1CO.[Fe+3] [Fe^III complex of 1-ethyl-3-hydroxy-6-hydroxymethylpyrid-4-one]
- haemoglobin binding ability (haemoglobin): no detectable haemoglobin binding ability
- iron removed from the iron complex (apotransferrin): over 45%
- Amount of complex entering erythrocytes (human erythrocytes): 26 n.mole

Molecule: Cc1c([O-])c(=O)ccn1CCO.Cc1c([O-])c(=O)ccn1CCO.Cc1c([O-])c(=O)ccn1CCO.[Fe+3] [Fe^III complex of 3-hydroxy-1-(2'-hydroxyethyl)-2-methylpyrid-4-one]
- Amount of complex entering erythrocytes (human erythrocytes): < 5 n.mole

Molecule: COC(=O)CCn1ccc(=O)c([O-])c1C.COC(=O)CCn1ccc(=O)c([O-])c1C.COC(=O)CCn1ccc(=O)c([O-])c1C.[Fe+3] [Fe^III complex of 3-hydroxy-1-(2'-methoxycarbonylethyl)-2-methylpyrid-4-one]
- Amount of complex entering erythrocytes (human erythrocytes): 25 n.mole

Molecule: Cc1c([O-])c(=O)ccn1CCCO.Cc1c([O-])c(=O)ccn1CCCO.Cc1c([O-])c(=O)ccn1CCCO.[Fe+3] [Fe^III complex of 3-hydroxy-1-(3'-hydroxypropyl)-2-methylpyrid-4-one]
- Amount of complex entering erythrocytes (human erythrocytes): 30 n.mole

Molecule: Cc1c([O-])c(=O)ccn1CCCCO.Cc1c([O-])c(=O)ccn1CCCCO.Cc1c([O-])c(=O)ccn1CCCCO.[Fe+3] [Fe^III complex of 3-hydroxy-1-(4'-hydroxybutyl)-2-methylpyrid-4-one]
- Amount of complex entering erythrocytes (human erythrocytes): 40 n.mole

Molecule: Cc1c([O-])c(=O)ccn1CCCCCO.Cc1c([O-])c(=O)ccn1CCCCCO.Cc1c([O-])c(=O)ccn1CCCCCO.[Fe+3] [Fe^III complex of 3-hydroxy-1-(5'-hydroxypentyl)-2-methylpyrid-4-one]
- Amount of complex entering erythrocytes (human erythrocytes): 44 n.mole

Molecule: CC(C)NC(=O)Cn1cccc([O-])c1=O.CC(C)NC(=O)Cn1cccc([O-])c1=O.CC(C)NC(=O)Cn1cccc([O-])c1=O.[Fe+3] [Fe^III complex of 3-hydroxy-1-[N-(2'-methylethyl)-carbamoylmethyl]-pyrid-2-one]
- Amount of complex entering erythrocytes (human erythrocytes): 52 n.mole

Molecule: COC(=O)Cn1cccc([O-])c1=O.COC(=O)Cn1cccc([O-])c1=O.COC(=O)Cn1cccc([O-])c1=O.[Fe+3] [Fe^III complex of 3-hydroxy-1-methoxycarbonylmethylpyrid-2-one]
- Amount of complex entering erythrocytes (human erythrocytes): 230 n.mole

Molecule: Cn1cc([O-])c(=O)cc1CO.Cn1cc([O-])c(=O)cc1CO.Cn1cc([O-])c(=O)cc1CO.[Fe+3] [Fe^III complex of 3-hydroxy-6-hydroxymethyl-1-methylpyrid-4-one]
- Amount of complex entering erythrocytes (human erythrocytes): < 5 n.mole

Molecule: Fe^III complex of 1-carboxymethyl-3-hydroxy-2-methylpyrid-4-one
- Kpart values (in words) [2]: low Kpart values
- Amount of complex entering erythrocytes (human erythrocytes): < 5 n.mole
